How the values were obtained:
MCF-7 cells = experiment: Breast Cancer Cell Viability Assay (MCF-7, CellTiter-Glo); type: cell-based; settings: 5 days' compound exposure; for IC50: Homo sapiens, MCF7, 120 h
Summary of the method: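 MCF-7 cells, 320 per well in RPMI with 10% FBS and 20 mM HEPES, adhered overnight, then exposed 5 days to an eleven-point semilog dilution (final 0.3-0.000003 μM). CellTiter-Glo luminescence read; % viability = (sample − cell-free background)/(untreated − background) × 100.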

ER-α = target: T1, ER-α (Homo sapiens, UniProt P03372); experiment: Breast Cancer Cell ER-α In Cell Western Assay (SP1); type: cell-based; settings: MCF-7 cells, SP1 antibody, 4 or 24 hr post compound addition; for Emax: MCF7, read-out: ER-α In Cell Western Assay (SP1) Max Response; for DC50: read-out: ER-α In Cell Western Assay (SP1) IC50
T1 sequence (P03372 1-595): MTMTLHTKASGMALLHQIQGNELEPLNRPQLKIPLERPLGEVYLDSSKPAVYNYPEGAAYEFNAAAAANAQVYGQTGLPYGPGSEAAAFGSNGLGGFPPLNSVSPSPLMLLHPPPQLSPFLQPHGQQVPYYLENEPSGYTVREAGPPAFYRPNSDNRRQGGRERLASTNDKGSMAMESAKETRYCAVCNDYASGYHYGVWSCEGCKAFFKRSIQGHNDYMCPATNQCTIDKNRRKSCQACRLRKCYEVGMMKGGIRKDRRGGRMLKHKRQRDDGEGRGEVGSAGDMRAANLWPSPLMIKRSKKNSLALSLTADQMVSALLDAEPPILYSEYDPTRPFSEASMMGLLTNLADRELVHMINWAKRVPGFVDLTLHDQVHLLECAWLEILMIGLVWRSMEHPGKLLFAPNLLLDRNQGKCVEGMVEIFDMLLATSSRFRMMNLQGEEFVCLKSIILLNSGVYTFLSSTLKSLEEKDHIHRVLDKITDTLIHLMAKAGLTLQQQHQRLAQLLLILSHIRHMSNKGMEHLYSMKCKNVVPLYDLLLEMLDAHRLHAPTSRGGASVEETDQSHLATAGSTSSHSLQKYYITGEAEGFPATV
Summary of the method: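 ER-α protein levels measured by in-cell western with SP1 antibody, ratioed to DRAQ5 DNA signal and given as percent of untreated controls. Compounds added at 0.3–0.000003 μM final (eleven semilog points) to adherent MCF-7 cells in stripped serum; exposure 4 or 24 h before fixation.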

Row | SMILES | MCF7 Viability Assay Max Response (MCF-7 cells) | IC50 (MCF-7 cells) | Emax (ER-α) | DC50 (ER-α)
1 | O=C(O)/C=C/c1ccc(/C(=C(/CCF)c2ccc(F)cc2Cl)c2ccc3[nH]ncc3c2)cc1 [Compound 120, (E)-3-(4-((E)-2-(2-Chloro-4-fluorophenyl)-4-fluoro-1-(1H-indazol-5-yl)but-1-en-1-yl)phenyl)acrylic acid] | ++ (++ = a single % value ≧ 40%) | ≤ 100 nM | ≥ 40% | ≤ 100 nM
2 | CC/C(=C(/c1ccc(/C=C/C(=O)O)cc1)c1ccc2[nH]ncc2c1)c1ccc(OC)cc1Cl [Compound 121, (E)-3-(4-((E)-2-(2-Chloro-4-methoxyphenyl)-1-(1H-indazol-5-yl)but-1-en-1-yl)phenyl)acrylic acid] | ++ (++ = a single % value ≧ 40%) | ≤ 100 nM | ≥ 40% | ≤ 100 nM
3 | O=C(O)/C=C/c1ccc(/C(=C(/CCF)c2ccc(Cl)cc2Cl)c2ccc3[nH]ncc3c2F)cc1 [Compound 122, (E)-3-(4-((E)-2-(2,4-Dichlorophenyl)-4-fluoro-1-(4-fluoro-1H-indazol-5-yl)but-1-en-1-yl)phenyl)acrylic acid] | ++ (++ = a single % value ≧ 40%) | ≤ 100 nM | ≥ 40% | ≤ 100 nM
4 | O=C(O)/C=C/c1ccc(/C(=C(\c2ccc(Cl)cc2Cl)C2CC2)c2ccc3[nH]ncc3c2F)cc1 [Compound 123, (E)-3-(4-((E)-2-Cyclopropyl-2-(2,4-dichlorophenyl)-1-(4-fluoro-1H-indazol-5-yl)vinyl)phenyl)acrylic acid] | ++ (++ = a single % value ≧ 40%) | ≤ 100 nM | ≥ 40% | ≤ 100 nM
5 | O=C(O)/C=C/c1ccc(/C(=C(\c2ccc(F)cc2Cl)C2CC2)c2ccc3[nH]ncc3c2F)cc1 [Compound 124, (E)-3-(4-((E)-2-(2-Chloro-4-fluorophenyl)-2-cyclopropyl-1-(4-fluoro-1H-indazol-5-yl)vinyl)phenyl)acrylic acid] | ++ (++ = a single % value ≧ 40%) | ≤ 100 nM | ≥ 40% | ≤ 100 nM
6 | O=C(O)/C=C/c1ccc(/C(=C(\c2ccc(Cl)cc2Cl)C2CC2)c2ccc3[nH]ncc3c2)cc1 [Compound 125, (E)-3-(4-((E)-2-Cyclopropyl-2-(2,4-dichlorophenyl)-1-(1H-indazol-5-yl)vinyl)phenyl)acrylic acid] | ++ (++ = a single % value ≧ 40%) | ≤ 100 nM | ≥ 40% | ≤ 100 nM
7 | Cc1cc(Cl)ccc1/C(=C(\c1ccc(/C=C/C(=O)O)cc1)c1ccc2[nH]ncc2c1)C1CC1 [Compound 126, (E)-3-(4-((E)-2-(4-Chloro-2-methylphenyl)-2-cyclopropyl-1-(1H-indazol-5-yl)vinyl)phenyl)acrylic acid] | ++ (++ = a single % value ≧ 40%) | ≤ 100 nM | ≥ 40% | ≤ 100 nM
8 | CC/C(=C(/c1ccc(/C=C/C(=O)O)cc1)c1ccc2[nH]ncc2c1)c1cc(S(C)(=O)=O)ccc1C [Compound 127, (E)-3-(4-((E)-1-(1H-Indazol-5-yl)-2-(2-methyl-5-(methylsulfonyl)phenyl)but-1-en-1-yl)phenyl)acrylic acid] | + (+ = a single % value < 40%) | > 100 nM | < 40% | > 100 nM
9 | CC/C(=C(/c1ccc(/C=C/C(=O)O)cc1)c1ccc2[nH]ncc2c1)c1ccc(OC)cc1C [Compound 128, (E)-3-(4-((E)-1-(1H-Indazol-5-yl)-2-(4-methoxy-2-methylphenyl)but-1-en-1-yl)phenyl)acrylic acid] | ++ (++ = a single % value ≧ 40%) | ≤ 100 nM | ≥ 40% | ≤ 100 nM
10 | CC/C(=C(/c1ccc(/C=C/C(=O)O)cc1)c1ccc2[nH]ncc2c1)c1ccc(OC)cc1F [Compound 129, (E)-3-(4-((E)-2-(2-Fluoro-4-methoxyphenyl)-1-(1H-indazol-5-yl)but-1-en-1-yl)phenyl)acrylic acid] | ++ (++ = a single % value ≧ 40%) | ≤ 100 nM | ≥ 40% | ≤ 100 nM
11 | CC/C(=C(/c1ccc(/C=C/C(=O)O)cc1)c1ccc2[nH]ncc2c1)c1cc(OC)ccc1Cl [Compound 130, (E)-3-(4-((E)-2-(2-Chloro-5-methoxyphenyl)-1-(1H-indazol-5-yl)but-1-en-1-yl)phenyl)acrylic acid] | ++ (++ = a single % value ≧ 40%) | ≤ 100 nM | ≥ 40% | ≤ 100 nM
12 | CC/C(=C(/c1ccc(/C=C/C(=O)O)cc1)c1ccc2[nH]ncc2c1)c1ccc(S(C)(=O)=O)cc1F [Compound 131, (E)-3-(4-((E)-2-(2-Fluoro-4-(methylsulfonyl)phenyl)-1-(1H-indazol-5-yl)but-1-en-1-yl)phenyl)acrylic acid] | ++ (++ = a single % value ≧ 40%) | > 100 nM | ≥ 40% | > 100 nM
13 | [2H]C([2H])([2H])C([2H])([2H])/C(=C(/c1ccc(/C=C/C(=O)O)cc1)c1ccc2[nH]ncc2c1)c1ccc(Cl)cc1Cl [Compound 132, (E)-3-(4-((E)-2-(2,4-Dichlorophenyl)-3,3,4,4,4-pentadeutero-1-(1H-indazol-5-yl)but-1-en-1-yl)phenyl)acrylic acid] | ++ (++ = a single % value ≧ 40%) | ≤ 100 nM | ≥ 40% | ≤ 100 nM
14 | CC/C(=C(/c1ccc(/C=C/C(=O)O)cc1)c1ccc2[nH]ncc2c1)c1cccc(S(C)(=O)=O)c1 [Compound 133, (E)-3-(4-((E)-1-(1H-Indazol-5-yl)-2-(3-(methylsulfonyl)phenyl)but-1-en-1-yl)phenyl)acrylic acid] | + (+ = a single % value < 40%) | > 100 nM | ≥ 40% | > 100 nM
15 | CC/C(=C(/c1ccc(/C=C/C(=O)O)cc1)c1cc(F)c2[nH]ncc2c1)c1ccc(Cl)cc1Cl [Compound 134, (E)-3-(4-((E)-2-(2,4-Dichlorophenyl)-1-(7-fluoro-1H-indazol-5-yl)but-1-en-1-yl)phenyl)acrylic acid] | ++ (++ = a single % value ≧ 40%) | ≤ 100 nM | ≥ 40% | ≤ 100 nM
16 | CC/C(=C(/c1ccc(/C=C/C(=O)O)cc1)c1ccc2[nH]ncc2c1)c1cccc(OC)c1Cl [Compound 135, (E)-3-(4-((E)-2-(2-Chloro-3-methoxyphenyl)-1-(1H-indazol-5-yl)but-1-en-1-yl)phenyl)acrylic acid] | ++ (++ = a single % value ≧ 40%) | ≤ 100 nM | ≥ 40% | ≤ 100 nM
17 | CC/C(=C(/c1ccc(/C=C/C(=O)O)cc1)c1ccc2[nH]ncc2c1)c1ccc(Cl)cc1C#N [Compound 137, (E)-3-(4-((E)-2-(4-Chloro-2-cyanophenyl)-1-(1H-indazol-5-yl)but-1-en-1-yl)phenyl)acrylic acid] | ++ (++ = a single % value ≧ 40%) | ≤ 100 nM | ≥ 40% | ≤ 100 nM
18 | CC/C(=C(/c1ccc(/C=C/C(=O)O)cc1)c1ccc2[nH]ncc2c1)c1ccc(F)cc1C#N [Compound 138, (E)-3-(4-((E)-2-(2-Cyano-4-fluorophenyl)-1-(1H-indazol-5-yl)but-1-en-1-yl)phenyl)acrylic acid] | ++ (++ = a single % value ≧ 40%) | ≤ 100 nM | ≥ 40% | ≤ 100 nM

From US8455534B2, “Estrogen receptor modulators and uses thereof” (Aragon Pharmaceuticals, Inc., priority 2010, dated 2013)
